{
  "source": "patent EP0630652A2",
  "about": "“Contrast media” (NYCOMED SALUTAR, INC., priority 1991, dated 1993)",
  "origin": "cited, not measured here",
  "key": {"[1]": {"settings": "Unger et al. Invest. Radiol. 21: 802 (1986)"}, "[2]": {"settings": "Caussen et al. ROFO 148: 683"}},
  "data": [
    {"smiles": "O=C([O-])CN(CCN(CC(=O)[O-])CC(=O)[O-])CCN(CC(=O)[O-])CC(=O)[O-].[Yb+3]", "note": "[ytterbium DTPA]", "values": [
      {"measurement": "LD₅₀", "setting": "[1]", "value": 10, "unit": "mmol/kg"}
    ]},
    {"smiles": "O=C([O-])CN(CCN(CC(=O)[O-])CC(=O)O)CCN(CC(=O)[O-])CC(=O)O.[Gd+3]", "note": "[GdDTPA]", "values": [
      {"measurement": "side effect", "setting": "[2]; GI tract use", "value": "diarrhoea"},
      {"measurement": "contrast improvement in the GI tract", "setting": "[2]; MRI", "value": "relatively poor"}
    ]}
  ]
}
